Data published in patent US20260167620A1, “MULTIFUNCTIONAL COMPOUND CAPABLE OF DEGRADING BTK KINASE, AND COMPOSITION AND USE” (HANGZHOU HEALZEN THERAPEUTICS CO., LTD., priority 2021, published 2026).

Molecular target: T1, BTK (Homo sapiens, UniProt Q06187)
T1 construct: endogenous in cells; host or cells: Mino cells
Experiment: BTK degradation activity test in Mino cells (Westernblot or Elisa)
Assay type: cell-based
Details: 24-72 h incubation
Protocol: The Mino cell line cells are 0.5˜1 million/well in 6-well plates. The compounds are diluted to different concentrations, added to the plate, and after 24-72 h of incubation, the cells are collected. After the cells were lysed, the total protein concentration in each well was determined with a BCA kit. The amount of BTK is determined using the Westernblot or Elisa method.

T1 sequence (Q06187 whole entry): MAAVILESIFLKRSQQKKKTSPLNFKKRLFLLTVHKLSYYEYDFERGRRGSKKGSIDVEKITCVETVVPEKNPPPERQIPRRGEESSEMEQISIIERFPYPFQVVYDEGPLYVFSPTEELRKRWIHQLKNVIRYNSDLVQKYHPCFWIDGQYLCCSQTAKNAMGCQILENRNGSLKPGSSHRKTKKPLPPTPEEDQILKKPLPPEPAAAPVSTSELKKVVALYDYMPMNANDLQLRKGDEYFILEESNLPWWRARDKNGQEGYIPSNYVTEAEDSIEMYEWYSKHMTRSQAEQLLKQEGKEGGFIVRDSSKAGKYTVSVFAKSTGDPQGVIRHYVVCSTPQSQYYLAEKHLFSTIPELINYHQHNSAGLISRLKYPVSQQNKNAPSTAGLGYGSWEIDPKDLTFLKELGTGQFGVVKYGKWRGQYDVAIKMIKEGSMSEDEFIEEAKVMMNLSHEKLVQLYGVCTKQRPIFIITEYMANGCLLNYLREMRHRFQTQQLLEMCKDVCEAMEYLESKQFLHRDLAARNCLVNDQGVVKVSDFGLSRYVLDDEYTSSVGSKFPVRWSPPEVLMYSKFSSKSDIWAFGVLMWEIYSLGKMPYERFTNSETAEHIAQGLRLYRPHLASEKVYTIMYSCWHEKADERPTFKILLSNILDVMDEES

DC50, < 10 nM:
NC(=O)c1cnc(N2CCCCC2)cc1Nc1ccc(N2CCN(CC3CCN(c4ccc5c(c4)C(=O)N(C4CCC(=O)NC4=O)C5=O)C3)CC2)c(F)c1 (stereo not shown) [Compound 037, 4-((4-(4-((1-(2-(2,6-dioxopiperidin-3-yl)-1,3-dioxoisoindolin-5-yl)pyrrolidin-3-yl)methyl)piperazin-1-yl)-3-fluorophenyl)amino)-6-(piperidin-1-yl) nicotinamide]
NC(=O)c1cnc(N2CCCCC2)cc1Nc1ccc(C2CCN(CC3CCN(c4ccc5c(c4)C(=O)N(C4CCC(=O)NC4=O)C5=O)C3)CC2)cc1 (stereo not shown) [Compound 038, 4-((4-(1-((1-(2-(2,6-dioxopiperidin-3-yl)-1,3-dioxoisoindolin-5-yl)pyrrolidin-3-yl)methyl)piperidin-4-yl)phenyl)amino)-6-(piperidin-1-yl) nicotinamide]
Cc1nc(C(N)=O)c(Nc2ccc(C3CCN(CC4CCN(c5ccc6c(c5)C(=O)N(C5CCC(=O)NC5=O)C6=O)C4)CC3)cc2)nc1N1CCCCC1 (stereo not shown) [Compound 039, 3-((4-(1-((1-(2-(2,6-dioxopiperidin-3-yl)-1,3-dioxoisoindolin-5-yl)pyrrolidin-3-yl)methyl)piperidin-4-yl)phenyl)amino)-6-methyl-5-(piperidin-1-yl) pyrazine-2-carboxamide]
NC(=O)c1nnc(N2CCCCC2)cc1Nc1ccc(C2CCN(CC3CCN(c4ccc5c(c4)C(=O)N(C4CCC(=O)NC4=O)C5=O)C3)CC2)cc1 (stereo not shown) [Compound 040, 4-((4-(1-((1-(2-(2,6-dioxopiperidin-3-yl)-1,3-dioxoisoindolin-5-yl)pyrrolidin-3-yl)methyl)piperidin-4-yl)phenyl)amino)-6-(piperidin-1-yl) pyridazine-3-carboxamide]
NC(=O)c1nnc(N2CCC[C@@H](O)C2)cc1Nc1ccc(C2CCN(CC3CCN(c4ccc5c(c4)C(=O)N(C4CCC(=O)NC4=O)C5=O)C3)CC2)cc1 (stereo partly drawn) [Compound 041, 4-((4-(1-((1-(2-(2,6-dioxopiperidin-3-yl)-1,3-dioxoisoindolin-5-yl)pyrrolidin-3-yl)methyl)piperidin-4-yl)phenyl)amino)-6-((R)-3-hydroxypiperidin-1-yl) pyridazine-3-carboxamide]
NC(=O)c1nc(F)c(N2CCCCC2)nc1Nc1ccc(C2CCN(CC3CCN(c4ccc5c(c4)C(=O)N(C4CCC(=O)NC4=O)C5=O)C3)CC2)cc1 (stereo not shown) [Compound 042, 3-((4-(1-((1-(2-(2,6-dioxopiperidin-3-yl)-1,3-dioxoisoindolin-5-yl)pyrrolidin-3-yl)methyl)piperidin-4-yl)phenyl)amino)-6-fluoro-5-(piperidin-1-yl) pyrazine-2-carboxamide]
COc1nc(C(N)=O)c(Nc2ccc(C3CCN(CC4CCN(c5ccc6c(c5)C(=O)N(C5CCC(=O)NC5=O)C6=O)C4)CC3)cc2)nc1N1CCCCC1 (stereo not shown) [Compound 043, 3-((4-(1-((1-(2-(2,6-dioxopiperidin-3-yl)-1,3-dioxoisoindolin-5-yl)pyrrolidin-3-yl)methyl)piperidin-4-yl)phenyl)amino)-6-methoxy-5-(piperidin-1-yl) pyrazine-2-carboxamide]
CN1CCN(c2nnc(C(N)=O)c(Nc3ccc(N4CCC(CN5CCN(c6ccc(N7CCC(=O)NC7=O)cc6)CC5)CC4)nc3)n2)CC1 [Compound 047, 5-((6-(4-((4-(4-(2,4-dioxotetrahydropyrimidin-1(2H)-yl)phenyl)piperazin-1-yl)methyl)piperidin-1-yl)pyridin-3-yl)amino)-3-(4-methylpiperazin-1-yl)-1,2,4-triazine-6-carboxamide]
NC(=O)c1nnc(N2CCCCC2)nc1Nc1ccc(N2CC(CN3CCN(c4ccc5c(c4)C(=O)N(C4CCC(=O)NC4=O)C5=O)CC3)C2)cc1 (stereo not shown) [Compound 049, 5-((4-(3-((4-(2-(2,6-dioxopiperidin-3-yl)-1,3-dioxoisoindolin-5-yl)piperazin-1-yl)methyl)azetidin-1-yl)phenyl)amino)-3-(piperidin-1-yl)-1,2,4-triazine-6-carboxamide]
CN1CCN(c2nnc(C(N)=O)c(Nc3ccc(N4CCC(CN5CCN(c6ccc(N7CCC(=O)NC7=O)cc6)CC5)CC4)c(F)c3)n2)CC1 [Compound 054, 5-((4-(4-((4-(4-(2,4-dioxotetrahydropyrimidin-1(2H)-yl)phenyl)piperazin-1-yl)methyl)piperidin-1-yl)-3-fluorophenyl)amino)-3-(4-methylpiperazin-1-yl)-1,2,4-triazine-6-carboxamide]
NC(=O)c1nnc(N2CCCCC2)nc1Nc1ccc(C2CCN(C(=O)C3CCN(c4ccc5c(c4)C(=O)N(C4CCC(=O)NC4=O)C5=O)C3)CC2)cc1 (stereo not shown) [Compound 055, 5-((4-(1-(1-(2-(2,6-dioxopiperidin-3-yl)-1,3-dioxoisoindolin-5-yl)pyrrolidine-3-carbonyl)piperidin-4-yl)phenyl)amino)-3-(piperidin-1-yl)-1,2,4-triazine-6-carboxamide]
NC(=O)c1nnc(N2CCCCC2)nc1Nc1ccc(N2CCN(C(=O)C3CCN(c4ccc5c(c4)C(=O)N(C4CCC(=O)NC4=O)C5=O)C3)CC2)cc1 (stereo not shown) [Compound 056, 5-((4-(4-(1-(2-(2,6-dioxopiperidin-3-yl)-1,3-dioxoisoindolin-5-yl)pyrrolidine-3-carbonyl)piperazin-1-yl)phenyl)amino)-3-(piperidin-1-yl)-1,2,4-triazine-6-carboxamide]
NC(=O)c1nnc(N2CCCCC2)nc1Nc1ccc(C2CCN(C(=O)C3CCN(c4ccc5c(c4)C(=O)N(C4CCC(=O)NC4=O)C5=O)CC3)CC2)cc1 (stereo not shown) [Compound 057, 5-((4-(1-(1-(2-(2,6-dioxopiperidin-3-yl)-1,3-dioxoisoindolin-5-yl)piperidine-4-carbonyl)piperidin-4-yl)phenyl)amino)-3-(piperidin-1-yl)-1,2,4-triazine-6-carboxamide]
NC(=O)c1nnc(N2CCCCC2)nc1Nc1ccc(N2CCN(C(=O)C3CCN(c4ccc5c(c4)C(=O)N(C4CCC(=O)NC4=O)C5=O)CC3)CC2)cc1 (stereo not shown) [Compound 058, 5-((4-(4-(1-(2-(2,6-dioxopiperidin-3-yl)-1,3-dioxoisoindolin-5-yl)piperidine-4-carbonyl)piperazin-1-yl)phenyl)amino)-3-(piperidin-1-yl)-1,2,4-triazine-6-carboxamide]
NC(=O)c1nnc(N2CCCCC2)nc1Nc1ccc(N2CCC(C(=O)N3CCN(c4ccc5c(c4)C(=O)N(C4CCC(=O)NC4=O)C5=O)CC3)CC2)cc1 (stereo not shown) [Compound 060, 5-((4-(4-(4-(2-(2,6-dioxopiperidin-3-yl)-1,3-dioxoisoindolin-5-yl)piperazine-1-carbonyl)piperidin-1-yl)phenyl)amino)-3-(piperidin-1-yl)-1,2,4-triazine-6-carboxamide]
NC(=O)c1nnc(N2CCCCC2)nc1Nc1ccc(N2CCN(C(=O)C3CN(c4ccc5c(c4)C(=O)N(C4CCC(=O)NC4=O)C5=O)C3)CC2)cc1 (stereo not shown) [Compound 061, 5-((4-(4-(1-(2-(2,6-dioxopiperidin-3-yl)-1,3-dioxoisoindolin-5-yl)azetidine-3-carbonyl)piperazin-1-yl)phenyl)amino)-3-(piperidin-1-yl)-1,2,4-triazine-6-carboxamide]
CC(C)(C)C(=O)OCN1C(=O)CCC(N2C(=O)c3ccc(N4CCC(CN5CCC(c6ccc(Nc7nc(N8CCCCC8)nnc7C(N)=O)cc6)CC5)C4)cc3C2=O)C1=O (stereo not shown) [Compound 062, (3-(5-(3-((4-(4-((6-carbamoyl-3-(piperidin-1-yl)-1,2,4-triazin-5-yl)amino)phenyl)piperidin-1-yl)methyl)pyrrolidin-1-yl)-1,3-dioxoisoindolin-2-yl)-2,6-dioxopiperidin-1-yl) methyl pivalate]
CN1CCN(c2nnc(C(N)=O)c(Nc3ccc(C4CCN(CC5CCN(c6ccc7c(c6)C(=O)N(C6CCC(=O)N(COC(=O)C(C)(C)C)C6=O)C7=O)C5)CC4)cc3)n2)CC1 (stereo not shown) [Compound 063, (3-(5-(3-((4-(4-((6-carbamoyl-3-(4-methylpiperazin-1-yl)-1,2,4-triazin-5-yl)amino)phenyl)piperidin-1-yl)methyl)pyrrolidin-1-yl)-1,3-dioxoisoindolin-2-yl)-2,6-dioxopiperidin-1-yl) methyl pivalate]
CC(C)(C)C(=O)OCN1C(=O)CCC(N2C(=O)c3ccc(N4CCC(CN5CCN(c6ccc(Nc7nc(N8CCCCC8)nnc7C(N)=O)cc6F)CC5)C4)cc3C2=O)C1=O (stereo not shown) [Compound 064, (3-(5-(3-((4-(4-((6-carbamoyl-3-(piperidin-1-yl)-1,2,4-triazin-5-yl)amino)-2-fluorophenyl)piperazin-1-yl)methyl)pyrrolidin-1-yl)-1,3-dioxoisoindolin-2-yl)-2,6-dioxopiperidin-1-yl) methyl pivalate]
CC(C)(C)C(=O)OCN1C(=O)CCN(c2ccc(N3CCN(CC4CCN(c5ccc(Nc6nc(N7CCCCC7)nnc6C(N)=O)cc5F)CC4)CC3)cc2)C1=O [Compound 066, (3-(4-(4-((1-(4-((6-carbamoyl-3-(piperidin-1-yl)-1,2,4-triazin-5-yl)amino)-2-fluorophenyl)piperidin-4-yl)methyl)piperazin-1-yl)phenyl)-2,6-dioxotetrahydropyrimidin-1(2H)-yl) methyl pivalate]
NC(=O)c1nnc(N2CCC[C@@H](O)C2)nc1Nc1ccc(C2CCN(CC3CCN(c4ccc5c(c4)C(=O)N(C4CCC(=O)NC4=O)C5=O)C3)CC2)c(F)c1 (stereo partly drawn) [Compound 067, 5-((4-(1-((1-(2-(2,6-dioxopiperidin-3-yl)-1,3-dioxoisoindolin-5-yl)pyrrolidin-3-yl)methyl)piperidin-4-yl)-3-fluorophenyl)amino)-3-((R)-3-hydroxypiperidin-1-yl)-1,2,4-triazine-6-carboxamide]
CC(C)(C)C(=O)OCN1C(=O)CCC(N2C(=O)c3ccc(N4CCC(CN5CCC(c6ccc(Nc7nc(N8CCCCC8)nnc7C(N)=O)cc6F)CC5)C4)cc3C2=O)C1=O (stereo not shown) [Compound 068, (3-(5-(3-((4-(4-((6-carbamoyl-3-(piperidin-1-yl)-1,2,4-triazin-5-yl)amino)-2-fluorophenyl)piperidin-1-yl)methyl)pyrrolidin-1-yl)-1,3-dioxoisoindolin-2-yl)-2,6-dioxopiperidin-1-yl) methyl pivalate]
